From patent US4202968A, “New tunicamine derivatives and their preparation” (Meiji Seika Kaisha, Ltd., priority 1977, dated 1980)

How the values were obtained:
[1] = test system: Newcastle disease virus (NDV), influenza virus and tobacco-mosaic virus; details: cited from earlier work
[2] = test system: genera Bacillus, Candida, Microbacterium; details: cited from earlier work
Eimeria tenella = experiment: Inhibitory activity against coccidiosis in chicks orally inoculated with Eimeria tenella oocysts; format: in vivo, chicks (domestic fowls) infected with Eimeria tenella; set-up: key to Presence of hemaferia: -: Not existing; ±: Something like hemaferia is likely to exist; +: A little hemaferia exists; ++: Distinct hemaferiae exist in places; +++: Distinct hemaferiae exist almost over the whole; ++++: The whole are hemaferiae
Protocol: Inhibitory activity of tunicamine derivative C against coccidiosis was tested in the following manner. Primary chicks newly-hatched out were raised with a standard assorted feed for chicks containing no tunicamine derivative C for the first 7 days and on and after the 8th day with the same feed as above but containing a 100 ppm or 200 ppm concentration of tunicamine derivative C. On the 8th day from the hatch the body weight of the chicks was taken and they were divided into test groups of five chicks per group so as to balance the weight distribution for respective groups. On the 9th day, each chick was orally inoculated with 5.0×10^4 matured oocysts of Eimeria tenella. Assessment was made by observation and determination of the presence of […] on the 4, 5, 6, 7 and 8 from day inoculation; percent of survivals on the 8th day and the extend of symptoms on the 8th day from the inoculation were then evaluated.

[3] = 100 ppm in feed, 8th day from inoculation
[4] = 200 ppm in feed, 8th day from inoculation

| Compound | antiviral activity [1] | antibacterial activity [2] | Relative increase in body weight (Eimeria tenella; 100 ppm in feed) [%] | Presence of hemaferia (Eimeria tenella; 100 ppm in feed, 4th day from inoculation) | Presence of hemaferia (Eimeria tenella; 100 ppm in feed, 5th day from inoculation) | Presence of hemaferia (Eimeria tenella; 100 ppm in feed, 6th day from inoculation) | Presence of hemaferia (Eimeria tenella; 100 ppm in feed, 7th day from inoculation) | Percent of survivals (Eimeria tenella; [3]) [%] | Presence of hemaferia (Eimeria tenella; [3]) | Relative increase in body weight (Eimeria tenella; 200 ppm in feed) [%] | Presence of hemaferia (Eimeria tenella; 200 ppm in feed, 4th day from inoculation) | Presence of hemaferia (Eimeria tenella; 200 ppm in feed, 5th day from inoculation) | Presence of hemaferia (Eimeria tenella; 200 ppm in feed, 6th day from inoculation) | Presence of hemaferia (Eimeria tenella; 200 ppm in feed, 7th day from inoculation) | Percent of survivals (Eimeria tenella; [4]) [%] | Presence of hemaferia (Eimeria tenella; [4]) |
| --- | --- | --- | --- | --- | --- | --- | --- | --- | --- | --- | --- | --- | --- | --- | --- | --- |
| tunicamycin | high | high |  |  |  |  |  |  |  |  |  |  |  |  |  |  |
| NC1C(O)OC(CC(O)C2OC(n3ccc(=O)[nH]c3=O)C(O)C2O)C(O)C1O (stereo not shown) [tunicamine derivative C] |  |  | 96 | - | - | ± | ± | 100 | + | 102 | - | - | - | - | 100 | - |
